# Laboratory results published in patent US7288273B1, “Gallotannins and ellagitannins as regulators of cytokine release” (The Penn State Research Foundation, priority 2000, dated 2007).
# Legend:
# [1] = test system: IL-1β secretion from h-PBMC's; assay: IL-1β release from h-PBMC's, ELISA; format: cell-based, human; settings: for IL-1β secreted in the presence of 17c-20c: h-PBMC's 2nd subject, ± SD
# Experimental: (§1) Authentic samples of agrimoniin and coriariin A were supplied by Professor Yoshida (Okayama University, Japan). Dimeric gallotannin (analog of coriariin A) and β-D-PGG were synthesized as described. LPS (E. coli 055:B5 phenol extract, MW range 50-100 KD). Ficoll-Histopaque (ρ=1.077 g/mL), Fetal Bovine Serum, sterile, hybridoma tested (FCS), gentamicin 10 mg/mL. L-glutamine, 200 mM. Dextran B-512 Leuconostoc Av M.W. 580000, and Trypan Blue stain were purchased from Sigma. Hanks Buffer Saline Solution 1×, with phenol red, mediatech (HBSS) and RPMI 1640 1×, mediatech were purchased from Fisher Scientific, Human IL-1β and TNF-α Enzyme Linked ImmunoSorbent Assay (ELISA) kits were purchased from R and D Systems, Minneapolis, Minn. Fresh heparinized blood was obtained from health human subjects (ages 20-34).
# (§2) Dose-Response Data: General Procedure. H-PBMC's were isolated by reported procedures (10. 18). The cells counted and the viability was determined by Trypan Blue exclusion (typically, viability exceeded 95%). The concentration of the cells in the 0.5 mL wells was adjusted to 1×10^6 cells/well by diluting with the required amount of RPMI.
# (§3) The appropriate amount of a tannin (or LPS) stock solution in HBSS was added to each well to furnish the concentration values reported in the Figures. […] The culture plates were incubated in a 5% CO2, 37° C. humidified incubator for the indicated time. At the end of the time interval, 450 μL of the culture supernatant from each well was harvested, after centrifugation at 400 g, 25° C., 10 min. with brake, and stored at −78° C. pending ELISA analysis for the cytokine(s). The ELISA assays were conducted per the manufacturer's instructions using standard calibration curves to calculate cytokine concentration from observed absorbance readings. The cytokine values reported are averages of three runs±SE.
# (§4) The dimeric antitumor ellagitannins coriariin A and agrimoniin, the monomeric gallotannin β-D-pentagalloylglucose (β-D-PGG) and the dimeric gallotannin of this invention were all examined in this study. The dimeric gallotannin is an analog of coriariin A and is identical to the parent ellagitannin except that the galloyl rings at O(4) and O(6) are not joined in a hexahydroxydiphenoyl (HHDP) linkage. h-PBMC's were incubated with the compound under investigation for the indicated length of time and the amounts of both IL-1β and, independently, TNF-α, present in the culture supernatants was determined using commercially available ELISA kits. In each case, LPS was used as a positive control while untreated cells were reserved as negative controls.
# In the third study, compounds 17c-20c were examined for their ability to induce secretion of IL-1β from h-PBMC's (FIG. 16). Recall from the introduction that the cytokine IL-1β is also released in an LPS-stimulated septic shock response. The compounds that cause very little secretion of IL-1β or none at all will be the optimal compounds for potential septic shock therapeutics because they will be less likely themselves to induce a septic shock response.
# [2] = test system: TNF-α secretion from h-PBMC's; assay: TNF-α release from h-PBMC's, ELISA; format: cell-based, human; settings: 24 hours, ± SD
# Experimental: as §1, §2, §3, §4
# In the first study, the induction of TNF-α secretion from h-PBMC's in the presence of each compound 17c-21c was measured. The h-PBMC's were incubated with each compound for 24 hours. The TNF-α levels in the cell culture supernatant were assayed by Enzyme Linked ImmunoSorbant Assay (ELISA). The data point for each assay represent the mean of triplicate measurements. […] (See FIG. 11).
Compound,IL-1β secreted in the presence of 17c-20c ([1]; compound 0.6 μM) [pg/mL],IL-1β secreted in the presence of 17c-20c ([1]; compound 2.9 μM) [pg/mL],IL-1β secreted in the presence of 17c-20c ([1]; compound 5.9 μM) [pg/mL],IL-1β secreted in the presence of 17c-20c ([1]; compound 11.8 μM) [pg/mL],IL-1β secreted in the presence of 17c-20c ([1]; compound 17.6 μM) [pg/mL],IL-1β secreted in the presence of 17c-20c ([1]; compound 23.5 μM) [pg/mL],IL-1β secreted in the presence of 17c-20c ([1]; compound 29.4 μM) [pg/mL],"IL-1β secretion from h-PBMC's, in words [1]",TNF-α secreted in the presence of 17c-21c ([2]; compound 0.6 μM) [pg/mL],TNF-α secreted in the presence of 17c-21c ([2]; compound 2.9 μM) [pg/mL],TNF-α secreted in the presence of 17c-21c ([2]; compound 5.9 μM) [pg/mL],TNF-α secreted in the presence of 17c-21c ([2]; compound 11.8 μM) [pg/mL],TNF-α secreted in the presence of 17c-21c ([2]; compound 17.6 μM) [pg/mL],TNF-α secreted in the presence of 17c-21c ([2]; compound 23.5 μM) [pg/mL],TNF-α secreted in the presence of 17c-21c ([2]; compound 29.4 μM) [pg/mL],further results
"O=C(CCCCCC(=O)OC1O[C@H](COC(=O)c2cc(O)c(O)c(O)c2)[C@@H](OC(=O)c2cc(O)c(O)c(O)c2)[C@H](OC(=O)c2cc(O)c(O)c(O)c2)[C@H]1OC(=O)c1cc(O)c(O)c(O)c1)OC1O[C@H](COC(=O)c2cc(O)c(O)c(O)c2)[C@@H](OC(=O)c2cc(O)c(O)c(O)c2)[C@H](OC(=O)c2cc(O)c(O)c(O)c2)[C@H]1OC(=O)c1cc(O)c(O)c(O)c1 (mixture of isomers) [Compound 20c, 1,1′-O-2,2′,3,3′,4,4′,6,6′-Tetrakis(3,4,5-trihyroxybenzoyl)-β,β′-D,D′-glucopyranosylpimelate]",0,0,0,184.1,230.0,0,204.2,lowest amounts of IL-1β production,0,,,,,,,TNF-α secreted in the presence of 17c-21c ([2]; compound 2.8 μM): 0 pg/mL; TNF-α secreted in the presence of 17c-21c ([2]; compound 5.6 μM): 0 pg/mL; TNF-α secreted in the presence of 17c-21c ([2]; compound 11.2 μM): 0 pg/mL; TNF-α secreted in the presence of 17c-21c ([2]; compound 16.8 μM): 0 pg/mL; TNF-α secreted in the presence of 17c-21c ([2]; compound 22.3 μM): 0 pg/mL; TNF-α secreted in the presence of 17c-21c ([2]; compound 27.9 μM): 0 pg/mL
"O=C(OC[C@H]1O[C@@H](OC(=O)c2ccc(-c3ccc(C(=O)O[C@@H]4O[C@H](COC(=O)c5cc(O)c(O)c(O)c5)[C@@H](OC(=O)c5cc(O)c(O)c(O)c5)[C@H](OC(=O)c5cc(O)c(O)c(O)c5)[C@H]4OC(=O)c4cc(O)c(O)c(O)c4)cc3)cc2)[C@H](OC(=O)c2cc(O)c(O)c(O)c2)[C@@H](OC(=O)c2cc(O)c(O)c(O)c2)[C@@H]1OC(=O)c1cc(O)c(O)c(O)c1)c1cc(O)c(O)c(O)c1 [Compound 19c, 1,1′-O-2.2′,3,3′,4,4′,6,6′-Tetrakis(3,4,5-trihyroxybenzoyl)-β,β′-D,D′-glucopyranosylbiphenyl-4.4′-diester]",54.2 ± 57.5,,,,,,,lowest amounts of IL-1β production,73.4 ± 58.3,50.9 ± 28.0,8.0 ± 8.0,9.5 ± 6.5,24.5 ± 10.7,67.6 ± 21.0,117.8 ± 44.0,IL-1β secreted in the presence of 17c-20c ([1]; compound 2.8 μM): 60.9 ± 58.6 pg/mL; IL-1β secreted in the presence of 17c-20c ([1]; compound 5.6 μM): 14.5 ± 25.2 pg/mL; IL-1β secreted in the presence of 17c-20c ([1]; compound 11.2 μM): 9.4 ± 7.0 pg/mL; IL-1β secreted in the presence of 17c-20c ([1]; compound 16.8 μM): 41.3 ± 14.8 pg/mL; IL-1β secreted in the presence of 17c-20c ([1]; compound 22.5 μM): 23.2 ± 18.0 pg/mL; IL-1β secreted in the presence of 17c-20c ([1]; compound 28.1 μM): 41.3 ± 6.0 pg/mL
"O=C(OC[C@H]1O[C@@H](OC(=O)c2cccc(C(=O)O[C@@H]3O[C@H](COC(=O)c4cc(O)c(O)c(O)c4)[C@@H](OC(=O)c4cc(O)c(O)c(O)c4)[C@H](OC(=O)c4cc(O)c(O)c(O)c4)[C@H]3OC(=O)c3cc(O)c(O)c(O)c3)c2)[C@H](OC(=O)c2cc(O)c(O)c(O)c2)[C@@H](OC(=O)c2cc(O)c(O)c(O)c2)[C@@H]1OC(=O)c1cc(O)c(O)c(O)c1)c1cc(O)c(O)c(O)c1 [Compound 18c, 1,1′-O-2,2′,3,3′,4,4′,6,6′-Tetrakis(3,4,5-trihydroxybenzoyl)-β,β′-D-glucopyranosylisophthalate]",0,4.7 ± 8.1,3.2 ± 5.5,34.1 ± 48.2,1266.0 ± 78.3,631.2 ± 94.4,2113.4 ± 393.0,,8.9 ± 5.6,11.9 ± 5.2,6.7 ± 2.9,9.5 ± 7.2,11.4 ± 9.2,3.3 ± 2.6,8.5 ± 3.5,
